For orientation: IC50 means the concentration needed to halve the response being measured.

This experiment has as its target T1, Bifunctional methylenetetrahydrofolate dehydrogenase/cyclohydrolase, mitochondrial (Homo sapiens, UniProt P13995).
T1 sequence (P13995 whole entry): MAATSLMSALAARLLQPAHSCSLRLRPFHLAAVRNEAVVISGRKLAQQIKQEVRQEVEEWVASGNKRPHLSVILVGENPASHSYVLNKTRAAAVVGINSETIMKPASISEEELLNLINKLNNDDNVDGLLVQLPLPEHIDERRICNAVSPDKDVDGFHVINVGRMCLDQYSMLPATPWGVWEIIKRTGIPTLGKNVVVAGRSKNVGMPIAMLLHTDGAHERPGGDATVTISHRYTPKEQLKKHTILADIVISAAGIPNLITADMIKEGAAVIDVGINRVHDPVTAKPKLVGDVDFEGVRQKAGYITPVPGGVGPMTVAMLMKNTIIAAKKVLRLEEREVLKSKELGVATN
The experiment can be described thus: Inhibition of MTHFD2. As for the experimental part: DMSO was used as negative control. The serial dilution in DMSO, from compound DMSO stock solution, was created by dispensing from a 384-well low dead volume microplate (LP-0200, Labcyte) and a 384-well polypropylene microplate 2.0 (PP-0200, Labcyte). A total of 2.5 μL MTHFD2 was preincubated with compound or DMSO for 10 min. The enzymatic reaction was initiated by adding 2.5 μL folitixorin (F680350, Toronto Research Chemicals). For background control, 5 μL buffer was added to the well. […] The final concentrations of all reagents in a total assay volume of 5 μL per well were 50 mmol/L Tris-HCl at pH 8.0, 100 mmol/L NaCl, 5 mmol/L MgCl2, 25 mmol/L Na3PO4 at pH 8.0, 0.005% (v/v) Tween-20, and 2 mmol/L 2-mercaptoethanol. After 15 min reaction time, 5 μL NAD(P)H-Glo detection reagent (G9061 or G9062, Promega) was dispensed in all wells and the plate was incubated for 60 min. Luminescence was measured on a plate reader (Envision, PerkinElmer or Sense, Hidex). The light signal produced is proportional to the amount of NAD(P)H in the sample.

In turn, `Nc1nc(N)c(NC(=O)Nc2ccc(C(=O)N[C@@H](CCc3ccccc3)C(=O)O)nc2)c(=O)[nH]1` [US11504368, Example 14] gave an IC50 of 36 nM.

For the origin of these results see BindingDB's records for patent US11504368 (Thomas Helledays Stiftelse FÖr Medicinsk Forskning, 2022).
